Measurements: article PMC11284787, “Ligand-Directed Labeling of the Adenosine A1 Receptor in Living Cells” (Journal of Medicinal Chemistry, 2024)

Columns and labels:
[1] = system: nontransfected HEK293 cells; assay: Confocal assessment of non-specific labelling in non-transfected HEK293T cells; assay type: cell-based, human; conditions: 125 nM; cells do not express the A1AR
Excerpt: Having investigated the molecular pharmacology of 11 and 12 in a series of in vitro assays, we sought to apply the LD probes for studying A1AR localization and dynamics in living cells. To this end, LD probes 11 and 12 were initially used in confocal microscopy studies to test their ability to label and allow visualization of the SNAP-hA1AR in living HEK293T cells (Figure 6). […] With both probes, the fluorescence labeling colocalized with SNAP-hA1AR labeled with AF488 (Figure 6A,C top frames).
Supplementary Figures: Pharmacology
Figure S1. Fluorescence spectra of SulfoCy5-conjugated methyltetrazine in the absence or in the presence of probe 12 (PEG-TCO). “Turn-on” type reaction of tetrazine (Met-TetSulfoCy5) with PEGylated trans-cyclooctene (PEG-TCO)-labelled 12. Fluorescence excitation and emission spectra measured in HBSS with the corresponding tetrazineSulfoCy5 [100 nM] without, then with 12 (PEG-TCO) [1 µM] (allowed to react for 10 min prior detection). Exc maxima (Met-TetSulfoCy5 + PEG-TCO) = 1.80-fold increase compared to Met-TetSulfoCy5 alone; Em maxima (Met-TetSulfoCy5 + TCO) = 1.40-fold; Excitation and emission fluorescence spectra (1 nm step width) were measured were recorded on a CLARIOstar plate reader (BMG Labtech).
Figure S2. Assessment of 11 non-specific labelling performed in non-transfected live HEK293T cells. Left hand frame corresponds to SulfoCy5 channel. […]

[2] = Fluorescence correlation spectroscopy in solution (HBSS); assay type: physicochemical
Procedure: The suitability of probe 11 for use with FCS was initially tested by recording 10 × 10 s trace reads in solution (100 nM in HBSS) (Figure S4). […] A 488 nm […] laser was used to excite SNAP-AF488 and the emission […] The pinhole diameter (1 Airy Unit; 1.1 μm optical slice), laser power and gain was kept constant in all the experiments. Images were acquired as 16-bit depth, 1024x1024 pixel resolution with a line averaging of 8 (or 2) and a pixel dwell time 4.12 µs (set to 5). Images were either processed in Zeiss ZEN 2 (blue edition) or FIJI (ImageJ) version 2.0.0 software, and linear adjustments to the brightness and contrast have been applied equally across all the images. To obtain membrane intensity values, regions of interest were drawn by hand around regions of cell membranes in FIJI (ImageJ)10 version 2.0.0 software. Fluorescence Correlation Spectroscopy. […] After that time, cells were washed 3x with warm HBSS over the course of 20 min, followed by the addition of 300 µL HBSS, left to cool to 24 OC and used in Fluorescence Correlation Spectroscopy (FCS) studies. […] For solution-based reads 10 x 10s trace measurements were taken within 200 µL sample with the confocal observation volume placed 200 µm above the coverslip. For apical membrane reads, 3 x 30s trace measurements at ~0.5 kW/cm2 laser power were taken on the apical membrane with its position determined as the peak of a point intensity S9 page 10: Z-scan utilising an argon 488 nm laser excitation, at ~0.5kW/cm2 laser power, detecting […] The placement was lowered by 0.2 µm to account for the optical chromatic offset between the 488 nm and 633 nm detection previously determined for our microscope set-up. Autocorrelation curves (AC) were constructed from fluorescence fluctuation traces and analysed within Zen Black (2012) software. […] Fluorescence fluctuation traces were reanalysed with Photon Counting Histogram analysis to determine the average molecular brightness of detected species. […]

NL-hA2AAR = target: T1, NL-hA2AAR (Homo sapiens, UniProt P29274); assay: NanoBRET competition ligand-binding assay (CA200645 tracer), NL-hA2AAR; conditions: CA200645 (25 nM) tracer, transient HEK293T, mean ± SEM; read-out: affinity values pKi, NL-hA2AAR (converted)
T1 construct: expressed in transfected cells; host or cells: HEK293T, transient transfection (FuGENE)

NL-hA2BAR = target: T2, NL-hA2BAR (Homo sapiens, UniProt P29275); assay: NanoBRET competition ligand-binding assay (CA200645 tracer), NL-hA2BAR; conditions: CA200645 (25 nM) tracer, HEK293T cells, mean ± SEM; read-out: affinity values pKi, NL-hA2BAR (converted)
T2 construct: expressed in transfected cells
T2 sequence (P29275 1-332): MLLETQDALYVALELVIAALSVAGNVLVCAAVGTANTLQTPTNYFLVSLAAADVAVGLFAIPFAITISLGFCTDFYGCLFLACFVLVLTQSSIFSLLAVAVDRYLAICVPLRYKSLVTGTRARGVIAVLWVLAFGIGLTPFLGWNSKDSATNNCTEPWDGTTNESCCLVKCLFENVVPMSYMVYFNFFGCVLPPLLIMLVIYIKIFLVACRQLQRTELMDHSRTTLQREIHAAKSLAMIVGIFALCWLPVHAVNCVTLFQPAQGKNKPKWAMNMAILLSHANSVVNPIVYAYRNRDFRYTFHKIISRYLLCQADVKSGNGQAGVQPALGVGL

T1 sequence (P29274 whole entry): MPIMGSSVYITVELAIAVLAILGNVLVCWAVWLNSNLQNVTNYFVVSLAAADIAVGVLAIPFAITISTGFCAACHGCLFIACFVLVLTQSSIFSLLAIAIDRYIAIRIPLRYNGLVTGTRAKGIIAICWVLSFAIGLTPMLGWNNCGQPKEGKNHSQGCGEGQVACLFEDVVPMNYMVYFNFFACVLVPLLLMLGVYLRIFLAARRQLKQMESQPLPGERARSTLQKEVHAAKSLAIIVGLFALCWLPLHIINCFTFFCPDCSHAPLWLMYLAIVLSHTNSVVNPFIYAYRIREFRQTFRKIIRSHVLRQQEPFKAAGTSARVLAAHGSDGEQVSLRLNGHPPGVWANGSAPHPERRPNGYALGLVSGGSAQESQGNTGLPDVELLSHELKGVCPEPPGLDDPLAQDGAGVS

| Structure (SMILES) | fluorescent signal in nontransfected HEK293 cells [1] | dwell time in solution (FCS, 3D diffusion model) ([2]; 100 nM in HBSS) [μs] | diffusion coefficient, D, in solution ([2]; 100 nM in HBSS, calibrated with Cy5) [μm^2/s] | PCH analysis, state in solution ([2]; 1-component fit, HBSS) | Ki (NL-hA2AAR) [µM] | Ki (NL-hA2BAR) [µM] |
| --- | --- | --- | --- | --- | --- | --- |
| CCCCn1c(=O)c2[nH]c(C34CCC(C(=O)NCCNC(=O)CCNC(=O)c5ccc(OC(=O)CCCCC[N+]6=C(/C=C/C=C/C=C7/N(C)c8ccc(S(=O)(=O)O)cc8C7(C)C)C(C)(C)c7cc(S(=O)(=O)[O-])ccc76)c(F)c5)(CC3)CC4)nc2n(CCCC)c1=O [Compound 11, 1-(6-(4-((3-((2-(4-(1,3-Dibutyl-2,6-dioxo-2,3,6,7-tetrahydro-1H-purin-8-yl)bicyclo[2.2.2]octane-1-carboxamido)ethyl)amino)-3-oxopropyl)carbamoyl)-2-fluorophenoxy)-6-oxohexyl)-3,3-dimethyl-2-((1E,3E)-5-((E)-1,3,3-trimethyl-5-sulfoindolin-2-ylidene)penta-1,3-dien-1-yl)-3H-indol-1-ium-5-sulfonate] | did not produce any detectable fluorescent signal | 117.6 ± 17.6 | 142.7 ± 17.3 | single species with no aggregation |  |  |
| CCCCn1c(=O)c2[nH]c(C34CCC(C(=O)NCCNC(=O)CCNC(=O)c5ccc(OC(=O)CCC(=O)NCCOCCOCCNC(=O)O[C@H]6CC/C=C/CCC6)c(F)c5)(CC3)CC4)nc2n(CCCC)c1=O [Compound 12, 4-((3-((2-(4-(1,3-Dibutyl-2,6-dioxo-2,3,6,7-tetrahydro-1H-purin-8-yl)bicyclo[2.2.2]octane-1-carboxamido)ethyl)amino)-3-oxopropyl)carbamoyl)-2-fluorophenyl (R,E)-1-(Cyclooct-4-en-1-yloxy)-1,12-dioxo-5,8-dioxa-2,11-diazapentadecan-15-oate] |  |  |  |  | 1.38 | 0.813 |
